{"source": "patent US11197908B2", "about": "“Peptoids and methods for attenuating inflammatory response” (THE BOARD OF TRUSTEES OF THE UNIVERSITY OF ARKANSAS, priority 2018, dated 2021)", "key": {"[1]": {"test_system": "IL-6", "experiment": "IL-6 in supernatant of THP-1 macrophages co-incubated with peptoid and LPS (ELISA)", "format": "cell-based, human", "settings": "peptoid 50 μM with 2 ng/mL LPS, 3 days; vs LPS alone", "description": "(§1) THP-1 monocytes were differentiated into macrophages through exposure to phorbol 12-myristate 13-acetate (PMA) for three days prior to experimentation 10. […] Upon differentiation, these cells were then incubated (3 days) with media containing JPT1a (50, 10, or 2 μM) alone or JPT1a (50, 10, or 2 μM) in the presence of low-dose (2 ng/mL) lipopolysaccharide (LPS) as a chronic pro-inflammatory stimulus 11. Treatment with 2 ng/mL LPS alone served as a positive control, while treatment with an equivalent volume of buffer diluted into media served as the vehicle. Cellular supernatant was harvested on day 3 12; these samples were immediately centrifuged at 1200 rpm for 10 min at 25° C. to remove any cells or debris. The top 80% of this volume was subsequently removed and stored at −80° C. for later assessment of cytokines via ELISA. Cells were fixed and stained for RAGE, phalloidin (cytoplasmic marker), and DAPI (nuclear marker) 13. […] All multi-channel images were converted to TIFF file format via ImageJ64 software for quantitative image analysis using a custom subroutine written in Matlab™ software to obtain the average RAGE expression per volume of cells, and the data generated was assessed for statistical significance using GraphPad Prism 7.0 software 15.\n(§2) As shown in FIGS. 2B-2D, THP-1 macrophages were treated with JPT1a alone (white) or in the presence of a chronic low-dose (2 ng/mL) of LPS (grey), for 3 days prior to supernatant harvest and storage. Examination of the supernatant via ELISA determined the concentrations of (FIG. 2B) IL-1β, (FIG. 2C) IL-6, and (FIG. 2D) IL-8. […]\nas §2, with “5B-5D,” for “2B-2D,”, “JPT1” for “JPT1a”, “5B)” for “2B)”, “5C)” for “2C)”, “5D)” for “2D)”"}, "[2]": {"test_system": "IL-1β", "experiment": "IL-1β in supernatant of THP-1 macrophages co-incubated with peptoid and LPS (ELISA)", "format": "cell-based, human", "settings": "peptoid 50 μM with 2 ng/mL LPS, 3 days; vs LPS alone", "description": "as §1, with “debris.” for “debris. The top 80% of this volume was subsequently removed and stored at −80° C. for later assessment of cytokines via ELISA. Cells were fixed and stained for RAGE, phalloidin (cytoplasmic marker), and DAPI (nuclear marker) 13.”\nas §2"}, "[3]": {"molecular_target": "RAGE (Homo sapiens, UniProt Q15109)", "sequence (Q15109 23-404)": "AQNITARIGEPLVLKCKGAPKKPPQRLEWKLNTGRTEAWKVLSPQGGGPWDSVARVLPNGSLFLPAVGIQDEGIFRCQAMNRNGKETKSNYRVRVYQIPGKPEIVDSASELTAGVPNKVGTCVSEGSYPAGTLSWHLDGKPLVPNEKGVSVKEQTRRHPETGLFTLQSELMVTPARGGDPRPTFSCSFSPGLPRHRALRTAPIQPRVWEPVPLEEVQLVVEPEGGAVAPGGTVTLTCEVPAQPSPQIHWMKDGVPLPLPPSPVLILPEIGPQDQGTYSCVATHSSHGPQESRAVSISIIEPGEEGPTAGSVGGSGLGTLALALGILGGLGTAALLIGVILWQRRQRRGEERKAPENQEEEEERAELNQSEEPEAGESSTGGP", "experiment": "RAGE binding to peptoid-coated 96-well plates, Scatchard plot", "settings": "plates coated with 500 nM peptoid; JPT1a n=3 average, JPT1 n=1", "description": "As shown in FIGS. 7A-7D, 96-well plates coated with 500 nM JPT1a were treated with concentrations of RAGE (FIG. 7A) or E-cadherin (FIG. 7B) ranging from 1 to 500 nM. Values are reported as the average concentration of bound protein determined from all experiments. Error bars indicate SEM, n=2-5. […] In FIG. 7D, 96-well plates coated with 500 nM JPT1 were treated with concentrations of RAGE ranging from 1 to 350 nM."}, "[4]": {"test_system": "RAGE", "experiment": "RAGE upregulation in THP-1 macrophages co-incubated with peptoid and low-dose LPS (confocal imaging)", "format": "cell-based, human", "settings": "3 days", "description": "THP-1 monocytes were differentiated into macrophages through exposure to phorbol 12-myristate 13-acetate (PMA) for three days prior to experimentation 10. […] Upon differentiation, these cells were then incubated (3 days) with media containing JPT1a (50, 10, or 2 μM) alone or JPT1a (50, 10, or 2 μM) in the presence of low-dose (2 ng/mL) lipopolysaccharide (LPS) as a chronic pro-inflammatory stimulus 11. Treatment with 2 ng/mL LPS alone served as a positive control, while treatment with an equivalent volume of buffer diluted into media served as the vehicle. Cellular supernatant was harvested on day 3 12; these samples were immediately centrifuged at 1200 rpm for 10 min at 25° C. to remove any cells or debris. The top 80% of this volume was subsequently removed and stored at −80° C. for later assessment of cytokines via ELISA. Cells were fixed and stained for RAGE, phalloidin (cytoplasmic marker), and DAPI (nuclear marker) 13. Each channel was imaged with a Zeiss LSM 510 META Confocal Scanning Laser Microscope using a plan-neofluar 40×/1.3 oil DIC immersion objective; three of these multi-channel images were obtained from each slide in each experiment 14. All multi-channel images were converted to TIFF file format via ImageJ64 software for quantitative image analysis using a custom subroutine written in Matlab™ software to obtain the average RAGE expression per volume of cells, and the data generated was assessed for statistical significance using GraphPad Prism 7.0 software 15.\n(§3) Images acquired via confocal microscopy were analyzed via custom MATLAB™ subroutine to determine the average quantity of RAGE present within a given volume of cells. Results within each experiment are normalized to the positive control (2 ng/mL LPS alone), indicated by the dashed line at 1. Significance relative to positive control is indicated as ** p<0.01. Error bars indicate SEM, n=4.\nas §3, with “1.0.” for “1. Significance relative to positive control is indicated as ** p<0.01.”, “n=2.” for “n=4.”"}}, "note": "Where a SMILES comes first, the peptide text is derived from it. [ ]: non-standard residue; d: D form. Nphe = O=C(O)CNCc1ccccc1; NPrGly = CCCNCC(=O)O; Nlys = NCCCCNCC(=O)O", "data": [{"smiles": "CCCN(CC(=O)N(CCC)CC(=O)N(CC(=O)N(CC(=O)N(CCC)CC(=O)N(CC(=O)N(CC(N)=O)Cc1ccccc1)Cc1ccccc1)Cc1ccccc1)Cc1ccccc1)C(=O)CNCCCCN", "note": "[JPT1] (H-[Nlys][NPrGly][NPrGly][Nphe][Nphe][NPrGly][Nphe][Nphe]-NH2)", "values": [{"measurement": "LPS-induced production of IL-6", "setting": "[1]", "value": "significantly attenuates"}, {"measurement": "LPS-induced production of IL-1β", "setting": "[2]", "value": "significantly attenuates"}, {"measurement": "Kd", "setting": "[3]", "value": 78.8, "unit": "nM"}, {"measurement": "upregulation in RAGE expression in the presence of LPS", "setting": "[4]; peptoid 50, 10 or 2 μM with 2 ng/mL LPS, normalized to LPS alone", "value": "reduced in a dose-dependent manner"}, {"measurement": "expression of RAGE, peptoid alone", "setting": "[4]; peptoid alone (no LPS), relative to the control", "value": "does not provoke response or upregulation"}]}]}
